# From patent US10329291B2, “C5-C6-carbocyclic fused iminothiadiazine dioxides as BACE inhibitors, compositions, and their use” (Merck Sharp & Dohme Corp., priority 2015, dated 2019)
# pKi: −log10 of the molar value.
# Biological target: soluble human BACE-1 catalytic domain (Homo sapiens (Human), UniProt P56817)
# Assay: BACE-1 Ki Assay (BACE-1 HTRF FRET Assay)
# Assay type: biochemical
# Settings: Ki calculated from IC50 using the Cheng-Prusoff equation; QSY7-APPswe-Eu substrate, pH 5.0; read-out: BACE1 Ki
# Description: The following reagents were used in this assay. Na^+-Acetate pH 5.0; 1% Brij-35; Glycerol; Dimethyl Sulfoxide (DMSO); Recombinant human soluble BACE-1 catalytic domain (>95% pure); APP Swedish mutant peptide substrate (QSY7-APP^swe-Eu): QSY7-[…]-Europium-amide.
# A homogeneous time-resolved FRET assay can be used to determine IC50 values for inhibitors of the soluble human BACE-1 catalytic domain. This assay monitors the increase of 620 nm fluorescence that resulted from BACE-1 cleavage of an APPswedish APP^swe mutant peptide FRET substrate (QSY7-[…]-Europium-amide). This substrate contains an N-terminal QSY7 moiety that serves as a quencher of the C-terminal Europium fluorophore (620 nm Em). In the absence of enzyme activity, 620 nm fluorescence is low in the assay and increased linearly over 3 hours in the presence of uninhibited BACE-1 enzyme. Inhibition of BACE-1 cleavage of the QSY7-APP^swe-Eu substrate by inhibitors is manifested as a suppression of 620 nm fluorescence.
# Reactions are initiated by addition of 10 μl of 600 nM QSY7-APP^swe-Eu substrate (200 nM final) to give a final reaction volume of 30 μl in a 384 well Nunc HTRF plate. The reactions are incubated at 30° C. for 1.5 hours. […] Inhibitor IC50 values are derived from non-linear regression analysis of concentration response curves. Ki values are then calculated from IC50 values using the Cheng-Prusoff equation using a previously determined […] of 8 μM for the QSY7-APP^swe-Eu substrate at BACE-1. The example compounds of the invention were measured in this assay.
# Chain of soluble human BACE-1 catalytic domain (P56817 75-416): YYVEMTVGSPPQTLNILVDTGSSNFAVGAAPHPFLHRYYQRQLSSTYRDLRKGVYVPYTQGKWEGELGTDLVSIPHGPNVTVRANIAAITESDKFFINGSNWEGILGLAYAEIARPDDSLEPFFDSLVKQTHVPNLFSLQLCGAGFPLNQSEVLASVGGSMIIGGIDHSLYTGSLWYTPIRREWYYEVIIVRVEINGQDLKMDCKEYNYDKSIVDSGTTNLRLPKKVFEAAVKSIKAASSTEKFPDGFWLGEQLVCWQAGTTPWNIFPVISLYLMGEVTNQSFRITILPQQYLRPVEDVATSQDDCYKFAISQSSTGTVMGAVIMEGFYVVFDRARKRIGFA
row,SMILES,pKi
1,COc1cnc2c(Nc3ccc(F)c([C@]45CCC[C@H]4S(=O)(=O)N(C)C(=N)N5)c3)ccnc2c1 [Example 21],6.69
2,"Cc1cnc(C(=O)Nc2ccc(F)c([C@]34CCC[C@H]3S(=O)(=O)N(C)C(=N)N4)c2)cn1 [Example 6, N-(4-fluoro-3-((4aR,7aR)-3-imino-2-methyl-1,1-dioxidohexahydrocyclopenta[e][1,2,4]thiadiazin-4a(2H)-yl)phenyl)-5-methylpyrazine-2-carboxamide]",6.90
3,COc1cnc2c(Nc3ccc(F)c([C@]45CCC[C@H]4S(=O)(=O)N(C)C(=N)N5)c3)nccc2c1 [Example 19],7.51
4,"CN1C(=N)NC2(c3cc(NC(=O)c4ccc(Cl)cn4)ccc3F)CC2S1(=O)=O (stereo not shown) [Example 32, 5-chloro-N-(4-fluoro-3-(4-imino-3-methyl-2,2-dioxido-2-thia-3,5-diazabicyclo[4.1.0]heptan-6-yl)phenyl)picolinamide]",5.60
5,"Cc1ccc(C(=O)Nc2ccc(F)c([C@]34CCC[C@H]3S(=O)(=O)N(C)C(=N)N4)c2)nc1 [Example 7, N-(4-fluoro-3-((4aR,7aR)-3-imino-2-methyl-1,1-dioxidohexahydrocyclopenta[e][1,2,4]thiadiazin-4a(2H)-yl)phenyl)-5-methylpicolinamide]",7.38
6,"CN1C(=N)N[C@@]2(c3cc(Oc4ncccc4F)ccc3F)CCC[C@H]2S1(=O)=O [Example 34, (4aR,7aR)-4a-(2-fluoro-5-((3-fluoropyridin-2-yl)oxy)phenyl)-3-imino-2-methyloctahydrocyclopenta[e][1,2,4]thiadiazine 1,1-dioxide]",7.05
7,"COc1cnc2c(Nc3ccc(F)c([C@]45CCC[C@H]4S(=O)(=O)N(C)C(=N)N5)c3)nccc2n1 [Example 20, (4aR,7aR)-4a-(2-fluoro-5-(2-methoxypyrido[3,4-b]pyrazin-5-ylamino)phenyl)-3-imino-2-methyloctahydrocyclopenta[e][1,2,4]thiadiazine 1,1-dioxide]",7.44
8,"CN1C(=N)N[C@@]2(c3cc(NC(=O)c4cnc(C(F)(F)F)cn4)ccc3F)CCC[C@H]2S1(=O)=O [Example 14, N-(4-fluoro-3-((4aR,7aR)-3-imino-2-methyl-1,1-dioxidohexahydrocyclopenta[e][1,2,4]thiadiazin-4a(2H)-yl)phenyl)-5-(trifluoromethyl)pyrazine-2-carboxamide]",7.60
9,"COCC(=O)Nc1ccc(F)c(C23CCCC2S(=O)(=O)N(C)C(=N)N3)c1 (stereo not shown) [Example 35, N-(4-fluoro-3-(3-imino-2-methyl-1,1-dioxidohexahydrocyclopenta[e][1,2,4]thiadiazin-4a(2H)-yl)phenyl)-2-methoxy acetamide]",6.43
10,CN1C(=N)NC2(c3cc(NC(=O)C(F)F)ccc3F)CCCC2S1(=O)=O (stereo not shown) [Example 36],5.96

# Continued, values first:
row,pKi,SMILES
1,7.80,"COc1cnc(C(=O)Nc2ccc(F)c([C@]34CCC[C@H]3S(=O)(=O)N(C)C(=N)N4)c2)c(C)c1 [Example 11, N-(4-fluoro-3-((4aR,7aR)-3-imino-2-methyl-1,1-dioxidohexahydrocyclopenta[e][1,2,4]thiadiazin-4a(2H)-yl)phenyl)-5-methoxy-3-methylpicolinamide]"
2,7.96,"COc1cnc(C(=O)Nc2ccc(F)c([C@]34CCC[C@H]3S(=O)(=O)N(C)C(=N)N4)c2)cn1 [Example 17, N-(4-fluoro-3-((4aR,7aR)-3-imino-2-methyl-1,1-dioxidohexahydrocyclopenta[e][1,2,4]thiadiazin-4a(2H)-yl)phenyl)-5-methoxypyrazine-2-carboxamide]"
3,7.64,"COc1cnc(C(=O)Nc2ccc(F)c([C@]34CCC[C@H]3S(=O)(=O)N(C)C(=N)N4)c2)c(C)n1 [Example 12, N-(4-fluoro-3-((4aR,7aR)-3-imino-2-methyl-1,1-dioxidohexahydrocyclopenta[e][1,2,4]thiadiazin-4a(2H)-yl)phenyl)-5-methoxy-3-methylpyrazine-2-carboxamide]"
4,8.40,"CN1C(=N)N[C@@]2(c3cc(NC(=O)c4ccc(OC(F)F)cn4)ccc3F)CCC[C@H]2S1(=O)=O [Example 3, 5-(difluoromethoxy)-N-(4-fluoro-3-((4aR,7aR)-3-imino-2-methyl-1,1-dioxidohexahydrocyclopenta[e][1,2,4]thiadiazin-4a(2H)-yl)phenyl)picolinamide]"
5,7.74,"CN1C(=N)N[C@@]2(c3cc(NC(=O)c4cnc(OCCF)cn4)ccc3F)CCC[C@H]2S1(=O)=O [Example 2, N-(4-fluoro-3-((4aR,7aR)-3-imino-2-methyl-1,1-dioxidohexahydrocyclopenta[e][1,2,4]thiadiazin-4a(2H)-yl)phenyl)-5-(2-fluoroethoxy)pyrazine-2-carboxamide]"
6,8.00,"Cc1cc(F)cnc1C(=O)Nc1ccc(F)c([C@]23CCC[C@H]2S(=O)(=O)N(C)C(=N)N3)c1 [Example 10, 5-fluoro-N-(4-fluoro-3-((4aR,7aR)-3-imino-2-methyl-1,1-dioxidohexahydrocyclopenta[e][1,2,4]thiadiazin-4a(2H)-yl)phenyl)-3-methylpicolinamide]"
7,8.52,"C#CCOc1ccc(C(=O)Nc2ccc(F)c([C@]34CCC[C@H]3S(=O)(=O)N(C)C(=N)N4)c2)nc1 [Example 18, N-(4-fluoro-3-((4aR,7aR)-3-imino-2-methyl-1,1-dioxidohexahydrocyclopenta[e][1,2,4]thiadiazin-4a(2H)-yl)phenyl)-5-(prop-2-yn-1-yloxy)picolinamide]"
8,7.66,"CN1C(=N)N[C@@]2(c3cc(NC(=O)c4ncc(F)cc4F)ccc3F)CCC[C@H]2S1(=O)=O [Example 9, 3,5-difluoro-N-(4-fluoro-3-((4aR,7aR)-3-imino-2-methyl-1,1-dioxidohexahydrocyclopenta[e][1,2,4]thiadiazin-4a(2H)-yl)phenyl)picolinamide]"
9,8.15,"CN1C(=N)N[C@@]2(c3cc(NC(=O)c4cnc(OCC(F)(F)F)cn4)ccc3F)CCC[C@H]2S1(=O)=O [Example 16, N-(4-fluoro-3-((4aR,7aR)-3-imino-2-methyl-1,1-dioxidohexahydrocyclopenta[e][1,2,4]thiadiazin-4a(2H)-yl)phenyl)-5-(2,2,2-trifluoroethoxy)pyrazine-2-carboxamide]"
10,7.80,"COc1ccc(C(=O)Nc2ccc(F)c([C@]34CCC[C@H]3S(=O)(=O)N(C)C(=N)N4)c2)nc1 [Example 15, N-(4-fluoro-3-((4aR,7aR)-3-imino-2-methyl-1,1-dioxidohexahydrocyclopenta[e][1,2,4]thiadiazin-4a(2H)-yl)phenyl)-5-methoxypicolinamide]"
11,8.40,"CN1C(=N)N[C@@]2(c3cc(NC(=O)c4ncc(Cl)cc4F)ccc3F)CCC[C@H]2S1(=O)=O [Example 8, 5-chloro-3-fluoro-N-(4-fluoro-3-((4aR,7aR)-3-imino-2-methyl-1,1-dioxidohexahydrocyclopenta[e][1,2,4]thiadiazin-4a(2H)-yl)phenyl)picolinamide]"
12,8.00,CN1C(=N)N[C@@]2(c3cc(NC(=O)c4ccc(F)cn4)ccc3F)CCC[C@H]2S1(=O)=O [Example 1]
13,8.52,"CN1C(=N)N[C@@]2(c3cc(NC(=O)c4ccc(Cl)cn4)ccc3F)CCC[C@H]2S1(=O)=O [Example 4, 5-chloro-N-(4-fluoro-3-((4aR,7aR)-3-imino-2-methyl-1,1-dioxidohexahydrocyclopenta[e][1,2,4]thiadiazin-4a(2H)-yl)phenyl)picolinamide]"
14,8.40,"CN1C(=N)N[C@@]2(c3cc(NC(=O)c4ccc(C#N)cn4)ccc3F)CCC[C@H]2S1(=O)=O [Example 5, 5-cyano-N-(4-fluoro-3-((4aR,7aR)-3-imino-2-methyl-1,1-dioxidohexahydrocyclopenta[e][1,2,4]thiadiazin-4a(2H)-yl)phenyl)picolinamide]"

# Same assay, conditions: read-out: BACE-1 Inh. @ 10 μM
row,SMILES,inhibition at 10 µM
1,"CN1C(=N)N[C@@]2(c3cc(Br)ccc3F)CCC[C@H]2S1(=O)=O [Example 33, (4aR,7aR)-4a-(5-bromo-2-fluorophenyl)-3-imino-2-methyloctahydrocyclopenta[e][1,2,4]thiadiazine 1,1-dioxide]",18%
2,"CN1C(=N)NC2(c3ccccc3F)CCCC2S1(=O)=O (stereo not shown) [Example 37, 4a-(2-fluorophenyl)-3-imino-2-methyloctahydrocyclopenta[e][1,2,4]thiadiazine 1,1-dioxide]",43%

# Biological target: purified human autoBACE-2 (Homo sapiens (Human), UniProt Q9Y5Z0)
# Sequence (Q9Y5Z0 63-473 limits assumed): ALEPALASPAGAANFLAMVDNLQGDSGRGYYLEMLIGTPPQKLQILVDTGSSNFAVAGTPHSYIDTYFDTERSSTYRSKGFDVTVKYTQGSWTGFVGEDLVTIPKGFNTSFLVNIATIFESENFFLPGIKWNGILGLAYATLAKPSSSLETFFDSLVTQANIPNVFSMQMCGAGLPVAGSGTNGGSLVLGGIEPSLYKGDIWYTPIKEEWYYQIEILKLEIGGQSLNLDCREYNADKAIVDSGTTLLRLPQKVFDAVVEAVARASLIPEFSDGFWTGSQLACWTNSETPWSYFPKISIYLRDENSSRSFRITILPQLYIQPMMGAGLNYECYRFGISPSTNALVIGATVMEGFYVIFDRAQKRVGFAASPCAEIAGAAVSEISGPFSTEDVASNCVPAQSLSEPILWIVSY
# Assay: BACE-2 Assay (BACE-HTRF assay)
# Settings: not given
row,pKi,SMILES
1,7.12,"CN1C(=N)N[C@@]2(c3cc(Oc4ncccc4F)ccc3F)CCC[C@H]2S1(=O)=O [Example 34, (4aR,7aR)-4a-(2-fluoro-5-((3-fluoropyridin-2-yl)oxy)phenyl)-3-imino-2-methyloctahydrocyclopenta[e][1,2,4]thiadiazine 1,1-dioxide]"

# Same assay, conditions: read-out: BACE-2 Inh. @ 10 μM
row,inhibition at 10 µM,SMILES
1,18%,"CN1C(=N)N[C@@]2(c3cc(Br)ccc3F)CCC[C@H]2S1(=O)=O [Example 33, (4aR,7aR)-4a-(5-bromo-2-fluorophenyl)-3-imino-2-methyloctahydrocyclopenta[e][1,2,4]thiadiazine 1,1-dioxide]"
